Assay results published in EP0248231B1, “Pharmacologically active peptides” (Brantl, Victor, Dr. med., Dipl.-Chem., priority 1986, dated 1993).
Residues, ends and D or L forms follow the SMILES beside them.

Test system: plexus myentericus/ Längsmuskel-Präparat des Meerschweinchenileums (GPI)
Assay: Inhibition of electrically induced contraction of the myenteric plexus/longitudinal muscle preparation of guinea pig ileum (GPI)
Type: cell-based
Conditions: means of 4-6 determinations; standard deviation below 14 %; read-out: GPI: Konzentration, die notwendig ist, die elektrisch induzierte Kontraktion des Meerschweinchen-Darm-Präparates (GPI) um 50 % zu hemmen (IC₅₀-Wert)
Source text: Die beiden Substanzen zeigen spezifische opiatartige Wirkungen am elektrisch stimulierten plexus myentericus/ Längsmuskel-Präparat des Meerschweinchenileums (GPI), Methode: Schulz und Goldstein, J. Pharmacol. Exptl. Ther. 183, 400, 1972. Die Ergebnisse sind in Tabelle 1 aufgeführt.
Tabelle 1. Opiatartige Wirkungen zweier erfindungsgemäßer Peptide; die Zahlen geben diejenige Konzentration (µM) an, die notwendig ist, die elektrisch induzierte Kontraktion des Meerschweinchen-Darm-Präparates (GPI) um 50 % zu hemmen (IC₅₀-Wert). Die Zahlen sind Mittelwerte aus 4-6 Bestimmungen; die Standardabweichung von den Mittelwerten ist kleiner als 14 %. Die Hemmungen des GPI sind mit dem spezifischen Opioid-Antagonisten Naloxon aufhebbar bzw. bei Vorbehandlung blockierbar. (Endkonzentration des Naloxons im Organbad 0,5 µM).

Row | Compound | IC50 [µM]
1 | C[C@@H](O)[C@H](NC(=O)[C@H](Cc1c[nH]c2ccccc12)NC(=O)[C@@H]1CCCN1C(=O)[C@@H](N)Cc1ccc(O)cc1)C(=O)O [Tyr-Pro-Trp-Thr, H-Tyr-Pro-Trp-Thr-OH] (H-YPWT-OH) | 45.2
2 | H-YPWTQ-OH [Tyr-Pro-Trp-Thr-Gln, H-Tyr-Pro-Trp-Thr-Gln-OH] | 46.1
3 | Oc1ccc2c3c1O[C@H]1[C@@H](O)C=C[C@H]4[C@@H](C2)NCC[C@@]341 [Normorphin] | 0.1
